# According to patent publication US10174067B2, “Type of cytidine derivative and application thereof” (priority 2014, dated 2019):
# Marks after values point to notes of the source that are not given here.
# Experiments:
# [1] = for Day 22 Mortality: single IP dose (mg/kg)
# Protocol: To determine the growth inhibition effect and toxicity of the cytidine derivative samples of the present invention on the transplanted tumor of nude mice bearing colon cancer HCT-116.
# The corresponding amount of test substance was taken in a 5 mL glass tube and dissolved in ethanol with a 5 mm magnetic stirrer for stirring. After dissolving completely, Cremophor EL was added with continuous stirring. The marked amount of saline was added and mixed evenly before use. The volume ratio of ethanol, Cremophor EL, and physiological saline was 5:5:90.
# Varieties and lines; Balb/c Nude mice; level: SPF; sex: female.
# 4.2 Animal inoculation and grouping: Each nude mouse was inoculated subcutaneously with 0.1 mL of cell suspension (3×10^6 cell/mouse) at right side of hind limb in a sterile stale. When the tumor grew to about 60-150 mm^3, the nude mice with similar tumor volume and desirable shape were selected (it would be better to select single spherical shape, no irregular shape or multiple tumors grouped together) for grouping, 6 mice a group. The grouping is as follows:
# The control group, namely the model control group, was injected with a mixture of ethanol, Cremophor EL, and saline (5:5:90).
# Those mice were weighed three times a week.
# All clinical symptoms of each animal should be recorded at the beginning of the test and during the test. The observations should be made at the same time each day.
# An animal would be killed by CO2 when its weight loss was more than 20%, when it was about to die, or when its tumor volume exceeded 2800 mm^3. The tumor was separated and weighed, and the animal was autopsied and observed to evaluate and record whether there were pathological changes in the organs.
# The data were expressed as Mean±SEM unless specially provided; Non-pairing T test was performed for the data between the two groups. P<0.05 was considered as significant difference.
# [2] = test system: HCT-116 colon cancer xenografts; assay: Tumor growth inhibition of HCT-116 colon cancer xenografts in tumor-bearing nude mice (tumor volume, TGI %, RTV, T/C %); format: in vivo, Balb/c Nude mice
# Protocol: 4.1 Tumor cells: colon cancer HCT-116 cells, purchased from the Institute of Cell Biology, Chinese Academy of Sciences. The cells were incubated by F-12 medium (containing 10% FBS) in carbon dioxide incubator at 37° C. and in saturated humidity, with 5% CO2 and 95% air in volume fraction. Before inoculation, the cells at logarithmic phase were taken, and digested with 0.25% trypsin, washed once with PBS and resuspended in PBS for counting. The cells were resuspended in serum-free medium and adjusted to about 3×10^7 cell/mL.
# The grouping is as follows:
# The formations of tumor at the inoculation site of each group of nude mice were observed. The diameter of tumor nodule (D) was measured three times a week with round hole ruler, and the volume of tumor nodule (V) was calculated according to the following formula: […].
# Anti-tumor activity was evaluated by tumor growth inhibition rate TGI (%) and relative tumor proliferation rate T/C (%).
# The relative tumor volume (RTV) was calculated as: RTV=Vt/V0, where V0 was the tumor volume when they were grouped and administered, and Vt was the tumor volume at the time of measurement.
# The relative proliferation rate T/C (%) was calculated as: […].
# TRTV: RTV of the treatment group; CRTV: RTV of the control group.
# P<0.05 was considered as significant difference.
# [3] = Day 0, G3-G9 groups, single IP dose, Mean±SEM
# [4] = Day 4, G3-G9 groups, single IP dose, Mean±SEM
# [5] = Day 6, G3-G9 groups, single IP dose, Mean±SEM
# [6] = Day 8, G3-G9 groups, single IP dose, Mean±SEM
# [7] = Day 11, G3-G9 groups, single IP dose, Mean±SEM
# [8] = Day 13, G3-G9 groups, single IP dose, Mean±SEM
# [9] = Day 15, G3-G9 groups, single IP dose, Mean±SEM
# [10] = Day 18, G3-G9 groups, single IP dose, Mean±SEM
# [11] = Day 20, G3-G9 groups, single IP dose, Mean±SEM
# [12] = Day 22, G3-G9 groups, single IP dose, Mean±SEM
smiles,measurement,setting,value
"Cl.Nc1ccn([C@@H]2O[C@H](CO)[C@@H](O)C2(F)F)c(=O)n1 [Compound G1, 2′deoxy-2′,2′-difluorocytidine hydrochloride, reference compound]",Day 22 Mortality,[1]; Day 22,100%
"CC(C)(C)OC(=O)Nc1ccn([C@@H]2O[C@H](COC(=O)Cn3cnc([N+](=O)[O-])c3)[C@@H](O)C2(F)F)c(=O)n1 [Compound G9, 5′-O-[2-(4-nitro-1H-imidazole)acetate]-4-N-(tert-butoxycarbonyl)-2′-deoxy-2′,2′-difluorocytidine]","Weight change rate, Day 0",[1]; [3],0.00 ± 0.00%
same,"Weight of mice, Day 0",[1]; [3],20.55 ± 0.56 g
same,"Weight change rate, Day 4",[1]; [4],−0.08 ± 3.14%
same,"Weight of mice, Day 4",[1]; [4],20.48 ± 0.57 g
same,"Weight change rate, Day 6",[1]; [5],2.53 ± 2.85%
same,"Weight of mice, Day 6",[1]; [5],21.02 ± 0.48 g
same,"Weight change rate, Day 8",[1]; [6],3.54 ± 3.17%
same,"Weight of mice, Day 8",[1]; [6],21.22 ± 0.51 g
same,"Weight change rate, Day 11",[1]; [7],5.18 ± 2.98%
same,"Weight of mice, Day 11",[1]; [7],21.55 ± 0.43 g
same,"Weight change rate, Day 13",[1]; [8],7.65 ± 3.18%
same,"Weight of mice, Day 13",[1]; [8],22.05 ± 0.42 g
same,"Weight change rate, Day 15",[1]; [9],5.50 ± 3.26%
same,"Weight of mice, Day 15",[1]; [9],21.60 ± 0.33 g
same,"Weight change rate, Day 18",[1]; [10],3.38 ± 3.55%
same,"Weight of mice, Day 18",[1]; [10],21.17 ± 0.46 g
same,"Weight change rate, Day 20",[1]; [11],2.91 ± 3.85%
same,"Weight of mice, Day 20",[1]; [11],21.05 ± 0.36 g
same,"Weight change rate, Day 22",[1]; [12],8.18 ± 4.15%
same,"Weight of mice, Day 22",[1]; [12],22.13 ± 0.47 g
same,Day 22 Mortality,[1]; Day 22,0%
same,clinical symptoms,"[1]; after single IP dose, compared with model control group",no significant differences in clinical symptoms
same,Day 0 (RTV),[2]; [3],1.00 ± 0.00
same,"Tumor volume, Day 0",[2]; [3],42.31 ± 7.52** mm^3
same,Day 4 (TGI %),"[2]; Day 4, G3-G9 groups, single IP dose",80.77%
same,Day 4 (RTV),[2]; [4],1.21 ± 0.16
same,"Tumor volume, Day 4",[2]; [4],51.25 ± 10.24** mm^3
same,Day 6 (TGI %),"[2]; Day 6, G3-G9 groups, single IP dose",80.67%
same,Day 6 (RTV),[2]; [5],1.82 ± 0.40
same,"Tumor volume, Day 6",[2]; [5],81.69 ± 23.70** mm^3
same,Day 8 (TGI %),"[2]; Day 8, G3-G9 groups, single IP dose",79.22%
same,Day 8 (RTV),[2]; [6],2.72 ± 0.82
same,"Tumor volume, Day 8",[2]; [6],109.19 ± 29.60** mm^3
same,Day 11 (TGI %),"[2]; Day 11, G3-G9 groups, single IP dose",76.07%
same,Day 11 (RTV),[2]; [7],4.91 ± 1.08
same,"Tumor volume, Day 11",[2]; [7],192.42 ± 37.84** mm^3
same,Day 13 (TGI %),"[2]; Day 13, G3-G9 groups, single IP dose",72.93%
same,Day 13 (RTV),[2]; [8],8.16 ± 1.87
same,"Tumor volume, Day 13",[2]; [8],314.26 ± 60.92** mm^3
same,Day 15 (TGI %),"[2]; Day 15, G3-G9 groups, single IP dose",60.81%
same,Day 15 (RTV),[2]; [9],13.83 ± 2.98
same,"Tumor volume, Day 15",[2]; [9],553.69 ± 115.02** mm^3
same,Day 18 (TGI %),"[2]; Day 18, G3-G9 groups, single IP dose",51.00%
same,Day 18 (RTV),[2]; [10],23.10 ± 5.36
same,"Tumor volume, Day 18",[2]; [10],907.03 ± 187.09** mm^3
same,Day 20 (TGI %),"[2]; Day 20, G3-G9 groups, single IP dose",42.39%
same,Day 20 (RTV),[2]; [11],31.85 ± 7.62
same,"Tumor volume, Day 20",[2]; [11],1221.09 ± 228.29** mm^3
same,Day 22 (RTV),[2]; [12],42.35 ± 10.48
same,"Tumor volume, Day 22",[2]; [12],1607.01 ± 297.45** mm^3
same,relative tumor volume compared with the model control group,"[2]; G4 and G5 Day 4 to Day 18, G7 Day 4 to Day 15 (p<0.05-0.01), G9 only Day 4 (p<0.05)",reduced significantly
same,maximum value of TGI %,"[2]; day of maximum: G3 Day 8, G4 Day 11, G5 Day 11, G9 Day 4, G7 Day 8, single IP",80.77%
